Test results from US20240115540A1, “METHODS FOR PROVIDING HEALTH BENEFITS IN ANIMALS” (Société des Produits Nestlé S.A., priority 2022, published 2024).

Test system: db/db mice
Test: CKD mice study: db/db mice fed test diets for 8 weeks (glomerular hyperfiltration, glycogen storage, kidney histology)
Assay type: in vivo
Procedure: The present study used db/db mice at 8 weeks of age for 8 weeks of intervention. The mice were divided into 4 groups of 9-10 mice administered with different blends (the Control group was administered with standard AIN-93M diet, the Dapa Group was administered standard AIN-93M augmented with dapagliflozin at 10 mg/kg, the RPB group was administered a standard diet augmented with a renal protection blend, the RPB+ group was administered a standard diet augmented with a renal protection blend that included medium chain triglycerides); the diets are shown in Table 1. The blends were administered to study glomerular hyperfiltration and glycogen storage in tissues. Final weekly food intake, final body weight, final blood glucose level, final lean body mass, and final fat mass of the groups is presented in Table 2. Also presented in table 2 were GFR progression, urine albumin/creatine ratio, urine protein/creatinine ratio, glomerulosclerosis score, Periodic acid-Schiff (PAS) staining scores for distal convoluted tubule (DCT) lumen, PAS staining scores for intranuclear inclusions distal tubules, and PAS staining scores for cytoplamis aggregates distal tubules.
In addition to the measurements of Table 2, the mice were measured for hyalinosis on a scoring system of no hyalinosis, intermediate hyalinosis, or severe hyalinosis, where hyalinosis refers to the thickening of the walls of the glomerular arterioles by the deposits of homogenous hyaline material. […] The control group had 1 mouse with no hyalinosis, 4 mice with intermediate hyalinosis, and 4 with significant hyalinosis; the dapa group had 2 mice with no hyalinosis, 5 mice with intermediate hyalinosis, and 2 mice with significant hyalinosis, the RPB group had 5 mice with no hyalinosis, 4 mice with intermediate hyalinosis, and 1 mouse with significant hyalinosis, and the RPB+ group had 2 mice with no hyalinosis and 8 mice with intermediate hyalinosis.

[1] = glomerular arterioles, groups of 9-10
[2] = kidney tissue, 8 weeks of intervention

Compound: CCOc1ccc(Cc2cc([C@@H]3O[C@H](CO)[C@@H](O)[C@H](O)[C@H]3O)ccc2Cl)cc1 [Dapa, dapagliflozin]
- GFR progression (8 weeks of intervention): 0.01 mL/min
- Blood glucose (final) (after 8 weeks of intervention): 464.78 mg/dL
- Fat mass (final) (after 8 weeks of intervention): 23.99 g
- Lean mass (final lean body mass) (after 8 weeks of intervention): 15.31 g
- number of mice with intermediate hyalinosis [1]: 5 mice
- number of mice with no hyalinosis [1]: 2 mice
- number of mice with significant (severe) hyalinosis [1]: 2 mice
- Glomerulosclerosis score [2]: 1.83
- PAS DCT lumen (PAS staining score, distal convoluted tubule lumen) [2]: 1.44
- PAS cytoplasmic aggregates DT (PAS staining score, distal tubules) [2]: 1.78
- PAS intranuclear inclusions DT (PAS staining score, distal tubules) [2]: 2.11
- Albumin/Creatinine ratio (urine, 8 weeks of intervention): 181.54
- Protein/Creatinine ratio (urine, 8 weeks of intervention): 36.92
